Columns and labels:
[1] = Solubility of the compound in water; format: physicochemical
Nucleic Acid = assay: Binding affinity to 5'-AGTGATCTAC-3' DNA assessed as melting temperature at 5 uM at pH 7.4 by thermal denaturation assay; format: nucleic-acid assay

| Structure (SMILES) | solubility [1] | Tm (Nucleic Acid) |
| --- | --- | --- |
| Cc1cn(CC(=O)N(CC(=O)NCCN(CC(=O)NCCN(CC(=O)NCCN(CC(=O)NC[C@@H](C)N(CC(=O)N[C@H](CCCCN)C(N)=O)C(=O)Cn2cc(C)c(=O)[nH]c2=O)C(=O)Cn2ccc(N)nc2=O)C(=O)Cn2cnc3c(N)ncnc32)C(=O)Cn2ccc(N)nc2=O)[C@H](C)CNC(=O)CN(CCNC(=O)CN(CCNC(=O)CN(CCNC(=O)CN(C(=O)Cn2cc(C)c(=O)[nH]c2=O)[C@H](C)CNC(=O)CN(CCN)C(=O)Cn2cnc3c(=O)[nH]c(N)nc32)C(=O)Cn2cnc3c(N)ncnc32)C(=O)Cn2cnc3c(=O)[nH]c(N)nc32)C(=O)Cn2cnc3c(N)ncnc32)c(=O)[nH]c1=O | > 500 µM |  |
| Cc1cn(CC(=O)N(CCNC(=O)CN(CCNC(=O)CN(CCNC(=O)CN(CCNC(=O)CN(CCNC(=O)CN(CCN)C(=O)Cn2cnc3c(=O)[nH]c(N)nc32)C(=O)Cn2cc(C)c(=O)[nH]c2=O)C(=O)Cn2cnc3c(N)ncnc32)C(=O)Cn2cnc3c(=O)[nH]c(N)nc32)C(=O)Cn2cnc3c(N)ncnc32)CC(=O)NCCN(CC(=O)NCCN(CC(=O)NCCN(CC(=O)NCCN(CC(=O)N[C@@H](CCCCN)C(N)=O)C(=O)Cn2cc(C)c(=O)[nH]c2=O)C(=O)Cn2ccc(N)nc2=O)C(=O)Cn2cnc3c(N)ncnc32)C(=O)Cn2ccc(N)nc2=O)c(=O)[nH]c1=O | > 500 µM | 51.4 °C |
| Cc1cn(CC(=O)N(CC(=O)NCCN(CC(=O)NCCN(CC(=O)NCCN(CC(=O)NC[C@H](C)N(CC(=O)N[C@@H](CCCCN)C(N)=O)C(=O)Cn2cc(C)c(=O)[nH]c2=O)C(=O)Cn2ccc(N)nc2=O)C(=O)Cn2cnc3c(N)ncnc32)C(=O)Cn2ccc(N)nc2=O)[C@@H](C)CNC(=O)CN(CCNC(=O)CN(CCNC(=O)CN(CCNC(=O)CN(C(=O)Cn2cc(C)c(=O)[nH]c2=O)[C@@H](C)CNC(=O)CN(CCN)C(=O)Cn2cnc3c(=O)[nH]c(N)nc32)C(=O)Cn2cnc3c(N)ncnc32)C(=O)Cn2cnc3c(=O)[nH]c(N)nc32)C(=O)Cn2cnc3c(N)ncnc32)c(=O)[nH]c1=O | > 500 µM | 51 °C |

Source: ChEMBL document CHEMBL1921728, “β-PNA: peptide nucleic acid (PNA) with a chiral center at the β-position of the PNA backbone” (Bioorg Med Chem Lett, 2011)
